From the supplement of paper PMC8882468

Columns and labels:
Assay in all cases: CTG-3D luminescence at 96 h relative to day-0 seeding control (ratio to day 0); higher = more growth / less cytotoxicity; PDxO 3D drug screen, 96 h, CTG-3D normalised to day-0 seeding control.
HCI-008 = test system: HCI-008 (organoid from a HER2-enriched breast cancer xenograft)
HCI-005.E2 = test system: HCI-005.E2 (organoid from a breast cancer xenograft with a HER2-positive history)
HCI-016 = test system: HCI-016 (organoid from a triple-negative breast cancer xenograft)
HCI-019 = test system: HCI-019 (organoid from a triple-negative breast cancer xenograft)
HCI-017.E2 = test system: HCI-017.E2 (organoid from an ER-positive breast cancer xenograft)
MDA-MB-231 = test system: MDA-MB-231
HCI-025 = test system: HCI-025 (organoid from a breast cancer xenograft)

NC(=O)Nc1cc(-c2cccc(F)c2)sc1C(=O)N[C@H]1CCCNC1 [AZD7762]
CTG-3D luminescence at 96 h
Details	12.5 pM	0.00025 µM	0.005 µM	0.1 µM	1 µM	10 µM	100 µM	625 fM
HCI-008, days in culture: 228	1.63	1.9	1.65	1.14	0.449	0.196	-0.128	1.86
HCI-008, days in culture: 244	1.39	1.87	2.45	1.66	0.881	0.413	0.00425	2.38
HCI-016, days in culture: 153	3.14	1.64	2.54	0.266	0.0727	0.081	0.000259	2.62
HCI-016, days in culture: 172	2.35	1.91	1.78	0.194	0.0623	0.0531	-3.08e-05	1.66
HCI-016, days in culture: 190	1.53	1.19	1.71	0.131	0.0574	0.0481	0.00171	1.32
HCI-016, days in culture: 199	1.5	1.46	1.56	0.129	0.0407	0.0245	-0.00099	1.57
HCI-017.E2, days in culture: 85	2.53	3.05	2.76	2.37	1.67	1.26	0.0135	2.7
HCI-019, days in culture: 110	2.48	1.62	1.33	1.06	0.333	0.13	-0.000246	2.15
HCI-019, days in culture: 131	2.56	4.24	2.81	2.99	0.541	0.193	0.00562	4.04
HCI-019, days in culture: 152	1.82	2.74	2.11	1.11	0.437	0.149	0.00479	3.06
HCI-025, days in culture: 172	3.17	1.83	2.73	0.677	0.305	0.0747	-0.00404	2.61
HCI-025, days in culture: 209	1.54	2.2	1.92	0.713	0.29	0.0922	-0.00311	1.39
HCI-025, days in culture: 218	1.78	1.97	2.04	1.33	0.198	0.105	-0.00375	1.77

CTG-3D luminescence at 96 h
Details	12.5 pM	0.00025 µM	0.005 µM	0.1 µM	1 µM	10 µM	100 µM	625 fM
HCI-005.E2	1.82	1.75	1.8	1.6	0.674	0.164	0.00356	1.95
HCI-017.E2	1.919	2	2.23	1.853	1.22	1.22	0.00946	2.25
MDA-MB-231	4.48	4.32	4.52	3.96	1.4	0.628	0.0187	4.49

NC1(C(=O)N[C@@H](CCO)c2ccc(Cl)cc2)CCN(c2nc[nH]c3nccc2-3)CC1 [capivasertib]
CTG-3D luminescence at 96 h
Details	12.5 pM	0.00025 µM	0.005 µM	0.1 µM	1 µM	10 µM	100 µM	625 fM
HCI-008, days in culture: 228	1.6	2.11	1.54	0.955	0.441	0.222	0.155	1.76
HCI-008, days in culture: 244	1.6	1.98	1.87	1.34	0.546	0.415	0.392	2.08
HCI-016, days in culture: 153	3.06	1.93	2.64	2.32	2.43	1.43	0.426	2.85
HCI-016, days in culture: 172	2.38	1.35	1.88	1.56	1.72	1.44	0.453	1.75
HCI-016, days in culture: 190	1.81	1.24	1.5	0.925	1.13	1.1	0.565	1.47
HCI-016, days in culture: 199	1.58	1.48	1.5	1.6	1.44	0.914	0.407	1.79
HCI-017.E2, days in culture: 85	2.33	2.6	2.77	2.3	1.44	0.794	0.118	2.69
HCI-019, days in culture: 110	1.22	1.74	1.4	1.97	0.842	1.18	0.332	1.92
HCI-019, days in culture: 131	2.99	3.67	2.98	3.31	1.45	1.63	0.521	4.08
HCI-019, days in culture: 152	2.96	2.9	2.96	1.68	0.946	0.895	0.274	2.6
HCI-025, days in culture: 172	2.76	1.4	3.17	1.35	1.43	0.474	0.354	2.57
HCI-025, days in culture: 209	1.74	1.99	1.44	0.818	0.472	0.37	0.266	1.74
HCI-025, days in culture: 218	1.88	2.08	1.82	1.2	0.565	0.592	0.288	1.69

CTG-3D luminescence at 96 h
Details	12.5 pM	0.00025 µM	0.005 µM	0.1 µM	1 µM	10 µM	100 µM	625 fM
HCI-005.E2	1.64	1.67	1.86	2.16	1.02	0.59	0.467	1.73
HCI-017.E2	1.91	2.1835	2.12	1.61	1.02	0.644	0.2237	2.12
MDA-MB-231	4.33	4.28	4.42	4.28	4.07	3.88	2.39	4.44

O=C(/C=C/c1cccnc1)NCCCCC1CCN(C(=O)c2ccccc2)CC1 [FK866]
CTG-3D luminescence at 96 h
Details	12.5 pM	0.00025 µM	0.005 µM	0.1 µM	1 µM	10 µM	100 µM	625 fM
HCI-008, days in culture: 228	1.646	1.91	0.904	0.206	0.125	0.168	0.162	1.38
HCI-008, days in culture: 244	1.37	1.87	1.86	0.263	0.186	0.197	0.173	1.82
HCI-016, days in culture: 153	2.99	0.401	0.569	0.026	0.0254	0.0134	0.0183	2.29
HCI-016, days in culture: 172	2.21	1.75	0.508	0.0341	0.0259	0.0131	0.022	1.55
HCI-016, days in culture: 190	1.78	1.44	0.967	0.0245	0.0257	0.0168	0.037	1.08
HCI-016, days in culture: 199	1.45	1.44	0.503	0.0273	0.0129	0.013	0.0134	1.79
HCI-017.E2, days in culture: 85	2.98	3.2	2.28	0.984	0.928	0.889	0.391	2.15
HCI-019, days in culture: 110	2.11	0.4	0.0804	0.0554	0.0484	0.0475	0.042	2.64
HCI-019, days in culture: 131	1.91	1.42	0.669	0.542	0.448	0.436	0.137	3.64
HCI-019, days in culture: 152	1.88	1.08	0.557	0.476	0.267	0.142	0.0796	1.93
HCI-025, days in culture: 172	3.12	0.0766	0.075	0.0447	0.0404	0.0184	-0.00051	2.06
HCI-025, days in culture: 209	2.08	1.82	0.314	0.0825	0.0624	0.0413	0.0255	2.16
HCI-025, days in culture: 218	1.78	2.01	0.0772	0.031	0.013	0.00874	0.00784	1.85

CTG-3D luminescence at 96 h
Details	12.5 pM	0.00025 µM	0.005 µM	0.1 µM	1 µM	10 µM	100 µM	625 fM
HCI-005.E2	1.39	1.97	1.39	0.142	0.135	0.267	0.166	1.93
HCI-017.E2	1.61	1.98	0.93	0.759	0.847	0.866	0.328	1.39
MDA-MB-231	4.37	4.45	3.77	0.298	0.237	0.236	0.146	4.49

C=CCn1c(=O)c2cnc(Nc3ccc(N4CCN(C)CC4)cc3)nc2n1-c1cccc(C(C)(C)O)n1 [adavosertib]
CTG-3D luminescence at 96 h
Details	12.5 pM	0.00025 µM	0.005 µM	0.1 µM	1 µM	10 µM	100 µM	625 fM
HCI-008, days in culture: 228	2.01	1.96	1.71	1.89	0.689	0.46	0.251	1.88
HCI-008, days in culture: 244	1.42	1.98	1.93	1.91	0.808	0.555	0.252	2.27
HCI-016, days in culture: 153	3.14	2.15	2.59	2.27	0.264	0.0723	0.0508	3.11
HCI-016, days in culture: 172	2.14	1.63	1.55	1.14	0.176	0.0497	0.0492	1.62
HCI-016, days in culture: 190	1.64	1.28	1.36	0.602	0.0834	0.0505	0.0792	1.02
HCI-016, days in culture: 199	1.57	1.35	1.53	1.52	0.172	0.0306	0.0372	1.43
HCI-017.E2, days in culture: 85	3.02	3.07	2.89	2.57	2.45	1.09	1.58	2.77
HCI-019, days in culture: 110	2.05	1.58	1.23	1.52	0.377	0.536	0.502	2.37
HCI-019, days in culture: 131	2.63	3.93	2.52	2.25	0.386	0.381	0.4	3.56
HCI-019, days in culture: 152	2.43	2.43	3.28	1.42	0.511	0.452	0.519	2.53
HCI-025, days in culture: 172	2.76	1.83	3.85	2	1.8	0.188	0.128	1.79
HCI-025, days in culture: 209	1.68	1.93	1.69	1.36	1.03	0.124	0.157	2.05
HCI-025, days in culture: 218	1.7	1.86	1.94	1.75	1.05	0.215	0.0695	1.86

CTG-3D luminescence at 96 h
Details	12.5 pM	0.00025 µM	0.005 µM	0.1 µM	1 µM	10 µM	100 µM	625 fM
HCI-005.E2	1.7	1.72	2.03	2.09	1.11	0.745	0.376	1.73
HCI-017.E2	1.84	2.24	2.2	2.13	1.78	1.28	1.51	2.15
MDA-MB-231	4.36	4.34	4.48	4.31	3.06	1.05	1.27	4.41
